Columns and labels:
[1] = target: T1, human alpha 1a adrenergic receptor (Homo sapiens, UniProt P35348); assay: Screening Assay: Alpha 1a Adrenergic Receptor Binding ([125I]-HEAT competition)
T1 construct: expressed in transfected cells; host or cells: stably transfected human alpha 1a cell line (ATCC CRL 11140)
T1 sequence (P35348 1-466): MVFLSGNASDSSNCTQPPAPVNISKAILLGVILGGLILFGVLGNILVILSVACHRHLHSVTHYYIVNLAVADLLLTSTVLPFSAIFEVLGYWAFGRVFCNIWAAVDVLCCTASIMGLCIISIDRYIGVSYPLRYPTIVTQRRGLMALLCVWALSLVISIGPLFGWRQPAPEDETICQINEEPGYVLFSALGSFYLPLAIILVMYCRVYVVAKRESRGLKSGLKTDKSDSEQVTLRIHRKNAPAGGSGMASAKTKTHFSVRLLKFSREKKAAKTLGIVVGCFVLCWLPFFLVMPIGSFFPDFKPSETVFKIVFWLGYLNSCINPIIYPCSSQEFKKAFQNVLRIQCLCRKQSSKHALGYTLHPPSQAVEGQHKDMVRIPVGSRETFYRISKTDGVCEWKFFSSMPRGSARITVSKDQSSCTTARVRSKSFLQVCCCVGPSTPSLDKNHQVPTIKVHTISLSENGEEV
Description: Screening Assay: Alpha 1a Adrenergic Receptor Binding
Membranes prepared from the stably transfected human alpha 1a cell line (ATCC CRL 11140) were used to identify compounds that bind to the human alpha 1a adrenergic receptor. These competition binding reactions (total volume=200 μl) contained 50 mM Tris-HCl pH. 7.4, 5 mM EDTA, 150 mM NaCl, 100 pM [^125 I]-HEAT, membranes prepared from the alpha 1a cell line and increasing amounts of unlabeled ligand. Reactions were incubated at room temperature for one hour with shaking. Reactions were filtered onto Whatman GF/C glass fiber filters with a Inotec 96 well cell harvester. Filters were washed three times with ice cold buffer and bound radioactivity was determined (Ki).

[2] = test system: human alpha 1b adrenergic receptor; assay: Selective Binding Assay, alpha 1b ([125I]-HEAT competition); conditions: alpha 1a versus alpha 1b
Description: Membranes prepared from stably transfected human alpha 1d and alpha 1b cell lines (ATCC CRL 11138 and CRL 11139, respectively) were used to identify compounds that selectively bind to the human alpha 1a adrenergic receptor. These competition binding reactions (total volume=200 μl) contained 50 mM Tris-HCl pH. 7.4, 5 mM EDTA, 150 mM NaCl, 100 pM [^125 I]-HEAT, membranes prepared from cell lines transfected with the respective alpha 1 subtype expression plasmid and increasing amounts of unlabeled ligand. Reactions were incubated at room temperature for one hour with shaking. Reactions were filtered onto Whatman GF/C glass fiber filters with a Inotec 96 well cell harvester. Filters were washed three times with ice cold buffer and bound radioactivity was determined (Ki).

alpha 1 antagonist activity of the (S) enantiomer relative to the (R) enantiomer ([1]; enantiomer comparison, in words, test not specified)	Structure (SMILES)	Ki ([1]; human alpha 1a cell line membranes, 100 pM [125I]-HEAT, room temperature, one hour) [µM]	selectivity in binding to alpha 1a receptors versus alpha 1b [2]
–	CC1=C(C(=O)NCCCN2CCC(C#N)(c3ccccn3)CC2)[C@@H](c2ccc(F)c(F)c2)CC(=O)N1C [Example 17, 4-(R)-(3 ,4-Difluorophenyl)-1,6-dimethyl-3,4-dihydro-2-pyridinone-5-carboxylic acid{3-[4-(2-pyridyl)-4-cyano-piperidine-1-yl]-propyl}amide]	0.257	about 8 fold
less active	CC1=C(C(=O)NCCCN2CCC(c3ccc(F)cc3)CC2)[C@H](c2ccc(F)c(F)c2)CC(=O)N1 [Example 18 (S enantiomer), 4-(S)-(3,4-difluorophenyl)-6-methyl-3,4-dihydro-2-pyridinone-5-carboxylic acid{3-[4-(4-fluorophenyl)-piperidine-1-yl]-propyl}amide]	–	–

Reference: patent US6235759A, “Dihydropyridinones and pyrrolinones useful as alpha 1A adrenoceptor antagonists” (Merck & Co., Inc., priority 1999, dated 2001)
